Reference: patent US12023333B2, “Phenyl-sulfamoyl.benzoyc acids as ERAP1 modulators” (GREY WOLF THERAPEUTICS LIMITED, priority 2019, dated 2024)

Target: T1, Purified ERAP1(37-941)-10His (ERAP1) (Homo sapiens, UniProt Q9NZ08)
T1 construct: Purified ERAP1(37-941)-10His (ERAP1); 10His (C)
Experiment: ERAP1 mediated hydrolysis of an amide substrate measured in a biochemical system (10-mer decapeptide substrate)
Settings: 10-mer substrate, 23° C. for 1 h, excitation 279 nm and emission 355 nm; read-out: IC50 vs Decapeptide WRVYEKC(Dnp)ALK-acid (where Dnp is Dinitrophenyl maleimide) (10-mer)
Procedure: Biological Assay 1: ERAP1 Mediated Hydrolysis of an Amide Substrate Measured in a Biochemical System
1× Assay buffer (AB): 25 mM Bis-tris propane, 0.05% w/v Hydroxypropylmethylcellulose pH 7.75 made with Optima grade water
Decapeptide WRVYEKC(Dnp)ALK-acid (where Dnp is Dinitrophenyl maleimide) (10-mer) L-Leucine 7-amido-4-methylcoumarin (L-AMC)
12.5 μL ERAP1 enzyme in 1×AB was combined with 250 nL test compound in DMSO. 12.5 μL of either 240 μM L-AMC in 1×AB or 100 μM 10-mer in 1×AB was added to the reaction and incubated at 23° C. for 1 h. For detection, plates were read at excitation 365 nm and emission 442 nm (L-AMC) or excitation 279 nm and emission 355 nm (10-mer). Compound IC50 was determined using a 4 parameter equation.

T1 sequence (Q9NZ08 37-941): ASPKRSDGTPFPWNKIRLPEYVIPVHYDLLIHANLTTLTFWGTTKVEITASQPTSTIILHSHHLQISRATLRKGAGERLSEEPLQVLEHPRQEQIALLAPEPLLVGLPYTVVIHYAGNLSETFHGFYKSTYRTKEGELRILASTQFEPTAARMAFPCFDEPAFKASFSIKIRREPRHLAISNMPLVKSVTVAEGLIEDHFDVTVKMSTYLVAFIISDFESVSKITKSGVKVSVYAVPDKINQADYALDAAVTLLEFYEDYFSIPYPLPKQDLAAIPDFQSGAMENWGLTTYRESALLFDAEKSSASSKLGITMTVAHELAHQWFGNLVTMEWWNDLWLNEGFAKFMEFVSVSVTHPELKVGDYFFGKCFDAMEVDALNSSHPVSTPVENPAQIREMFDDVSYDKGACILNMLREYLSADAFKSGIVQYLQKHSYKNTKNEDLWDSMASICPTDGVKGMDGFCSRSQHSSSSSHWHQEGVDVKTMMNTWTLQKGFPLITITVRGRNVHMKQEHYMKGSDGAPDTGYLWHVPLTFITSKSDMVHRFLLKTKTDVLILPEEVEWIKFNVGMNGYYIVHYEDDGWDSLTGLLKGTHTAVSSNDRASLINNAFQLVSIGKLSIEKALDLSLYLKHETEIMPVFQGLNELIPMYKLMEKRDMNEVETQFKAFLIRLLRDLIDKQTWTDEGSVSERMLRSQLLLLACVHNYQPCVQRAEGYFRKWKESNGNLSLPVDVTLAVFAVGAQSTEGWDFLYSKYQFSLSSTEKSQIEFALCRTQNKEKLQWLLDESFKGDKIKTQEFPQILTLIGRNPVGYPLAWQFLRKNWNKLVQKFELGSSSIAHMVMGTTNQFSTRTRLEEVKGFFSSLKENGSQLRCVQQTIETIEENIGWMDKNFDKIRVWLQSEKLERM

IC50, < 0.5 µM:
COc1ccc(C(=O)O)cc1S(=O)(=O)Nc1cc(-c2nnn[nH]2)ccc1-c1ccccc1 [Example 63, 3-(N-(4-(tetrazol-5-yl)-[1,1′-biphenyl]-2-yl)sulfamoyl)-4-methoxybenzoic acid]
COc1ccc(C(=O)O)cc1S(=O)(=O)Nc1cc(-c2nnn[nH]2)ccc1-c1cccc(F)c1 [Example 64, 3-(N-(3′-fluoro-4-(tetrazol-5-yl)-[1,1′-biphenyl]-2-yl)sulfamoyl)-4-methoxybenzoic acid]
COc1ccc(C(=O)O)cc1S(=O)(=O)Nc1cc(-c2nnn[nH]2)ccc1-c1cccs1 [Example 65, 3-(N-(5-(tetrazol-5-yl)-2-(thiophen-2-yl)phenyl)sulfamoyl)-4-methoxybenzoic acid]
CCc1ccc(C(=O)O)cc1S(=O)(=O)Nc1cc(C(F)(F)F)ccc1-c1ncccc1F [Example 66, 4-ethyl-3-(N-(2-(3-fluoropyridin-2-yl)-5-(trifluoromethyl)phenyl)sulfamoyl)benzoic acid]
CCc1ccc(C(=O)O)cc1S(=O)(=O)Nc1cc(C(F)(F)F)ccc1-c1ccc(F)s1 [Example 67, 4-ethyl-3-(N-(2-(5-fluorothiophen-2-yl)-5-(trifluoromethyl)phenyl)sulfamoyl)benzoic acid]
CCc1ccc(C(=O)O)cc1S(=O)(=O)Nc1cc(C(F)(F)F)ccc1-c1ncccn1 [Example 68, 4-ethyl-3-(N-(2-(pyrimidin-2-yl)-5-(trifluoromethyl)phenyl)sulfamoyl)benzoic acid]
CCc1ccc(C(=O)O)cc1S(=O)(=O)Nc1cc(C(F)(F)F)ccc1-c1ccc[nH]1 [Example 69, 3-(N-(2-(pyrrol-2-yl)-5-(trifluoromethyl)phenyl)sulfamoyl)-4-ethylbenzoic acid]
CCc1ccc(C(=O)O)cc1S(=O)(=O)Nc1cc(C(F)(F)F)ccc1-c1ccc(Cl)s1 [Example 70, 3-(N-(2-(5-chlorothiophen-2-yl)-5-(trifluoromethyl)phenyl)sulfamoyl)-4-ethylbenzoic acid]
CCc1ccc(C(=O)O)cc1S(=O)(=O)Nc1cc(S(C)(=O)=O)ccc1-c1ccccn1 [Example 71, 4-ethyl-3-(N-(5-(methylsulfonyl)-2-(pyridin-2-yl)phenyl)sulfamoyl)benzoic acid]
O=C(O)c1ccc(C2CC2)c(S(=O)(=O)Nc2cc(C(F)(F)F)ccc2-c2ccccn2)c1 [Example 72, 4-cyclopropyl-3-(N-(2-(pyridin-2-yl)-5-(trifluoromethyl)phenyl)sulfamoyl)benzoic acid]
CCc1ccc(C(=O)O)cc1S(=O)(=O)Nc1cc(C(F)(F)F)ccc1-c1cccn1C [Example 73, 4-ethyl-3-(N-(2-(1-methyl-pyrrol-2-yl)-5-(trifluoromethyl)phenyl)sulfamoyl)benzoic acid]
CS(=O)(=O)c1ccc(-c2cccs2)c(NS(=O)(=O)c2cc(C(=O)O)ccc2C2CC2)c1 [Example 74, 4-cyclopropyl-3-(N-(5-(methylsulfonyl)-2-(thiophen-2-yl)phenyl)sulfamoyl) benzoic acid]
N#Cc1ccc(-c2cccs2)c(NS(=O)(=O)c2cc(C(=O)O)ccc2C2CC2)c1 [Example 75, 3-(N-(5-cyano-2-(thiophen-2-yl)phenyl)sulfamoyl)-4-cyclopropylbenzoic acid]
O=C(O)c1ccc(C2CC2)c(S(=O)(=O)Nc2cc(C(F)(F)F)ccc2-c2cccs2)c1 [Example 76, 4-cyclopropyl-3-(N-(2-(thiophen-2-yl)-5-(trifluoromethyl)phenyl)sulfamoyl)benzoic acid]
CCc1ccc(C(=O)O)cc1S(=O)(=O)Nc1cc(C(F)(F)F)ccc1-c1ccc(C#N)s1 [Example 77, 3-(N-(2-(5-cyanothiophen-2-yl)-5-(trifluoromethyl)phenyl)sulfamoyl)-4-ethylbenzoic acid]
COc1ccc(C(=O)O)cc1S(=O)(=O)Nc1cc(S(C)(=O)=O)ccc1-c1cccs1 [Example 78, 4-methoxy-3-(N-(5-(methylsulfonyl)-2-(thiophen-2-yl)phenyl)sulfamoyl) benzoic acid]
COc1ccc(C(=O)O)cc1S(=O)(=O)Nc1cc(C(F)(F)F)ccc1-c1ccc(C)s1 [Example 79, 4-methoxy-3-(N-(2-(5-methylthiophen-2-yl)-5-(trifluoromethyl)phenyl)sulfamoyl)benzoic acid]
CCc1ccc(C(=O)O)cc1S(=O)(=O)Nc1cc(C#N)ccc1-c1ccc(C)s1 [Example 80, 3-(N-(5-cyano-2-(5-methylthiophen-2-yl)phenyl)sulfamoyl)-4-ethylbenzoic acid]
COc1ccc(C(=O)O)cc1S(=O)(=O)Nc1cc(C#N)ccc1-c1ccc(C)s1 [Example 81, 3-(N-(5-cyano-2-(5-methylthiophen-2-yl)phenyl)sulfamoyl)-4-methoxybenzoic acid]
CS(=O)(=O)c1ccc(-c2ccccn2)c(NS(=O)(=O)c2cc(C(=O)O)ccc2C2CC2)c1 [Example 82, 4-cyclopropyl-3-(N-(5-(methylsulfonyl)-2-(pyridin-2-yl)phenyl)sulfamoyl) benzoic acid]
N#Cc1ccc(-c2ccccn2)c(NS(=O)(=O)c2cc(C(=O)O)ccc2C2CC2)c1 [Example 83, 3-(N-(5-cyano-2-(pyridin-2-yl)phenyl)sulfamoyl)-4-cyclopropylbenzoic acid]
CCc1ccc(C(=O)O)cc1S(=O)(=O)Nc1cc(S(C)(=O)=O)ccc1-c1ccc(C)s1 [Example 84, 4-ethyl-3-(N-(5-(methylsulfonyl)-2-(5-methylthiophen-2-yl)phenyl)sulfamoyl) benzoic acid]
COc1ccc(C(=O)O)cc1S(=O)(=O)Nc1cc(S(C)(=O)=O)ccc1-c1ccc(C)s1 [Example 85, 4-methoxy-3-(N-(5-(methylsulfonyl)-2-(5-methylthiophen-2-yl)phenyl)sulfamoyl)benzoic acid]
Cc1ccc(-c2ccc(C(F)(F)F)cc2NS(=O)(=O)c2cc(C(=O)O)ccc2C2CC2)s1 [Example 86, 4-cyclopropyl-3-(N-(2-(5-methylthiophen-2-yl)-5-(trifluoromethyl)phenyl)sulfamoyl)benzoic acid]
COc1ccc(C(=O)O)cc1S(=O)(=O)Nc1cc(C(F)(F)F)ccc1-c1ccc(Cl)s1 [Example 87, 3-(N-(2-(5-chlorothiophen-2-yl)-5-(trifluoromethyl)phenyl)sulfamoyl)-4-methoxybenzoic acid]
COc1ccc(C(=O)O)cc1S(=O)(=O)Nc1cc(S(C)(=O)=O)ccc1-c1ccc(Cl)s1 [Example 88, 3-(N-(2-(5-chlorothiophen-2-yl)-5-(methylsulfonyl)phenyl)sulfamoyl)-4-methoxybenzoic acid]
CCc1ccc(C(=O)O)cc1S(=O)(=O)Nc1cc(S(C)(=O)=O)ccc1-c1ccc(Cl)s1 [Example 89, 3-(N-(2-(5-chlorothiophen-2-yl)-5-(methylsulfonyl)phenyl)sulfamoyl)-4-ethylbenzoic acid]
COc1ccc(C(=O)O)cc1S(=O)(=O)Nc1cc(C#N)ccc1-c1ccc(Cl)s1 [Example 90, 3-(N-(2-(5-chlorothiophen-2-yl)-5-cyanophenyl)sulfamoyl)-4-methoxybenzoic acid]
CCc1ccc(C(=O)O)cc1S(=O)(=O)Nc1cc(C#N)ccc1-c1ccc(Cl)s1 [Example 91, 3-(N-(2-(5-chlorothiophen-2-yl)-5-cyanophenyl)sulfamoyl)-4-ethylbenzoic acid]
O=C(O)c1ccc(C2CC2)c(S(=O)(=O)Nc2cc(C(F)(F)F)ccc2-c2cccc(F)c2)c1 [Example 92, 4-cyclopropyl-3-(N-(3′-fluoro-4-(trifluoromethyl)-[1,1′-biphenyl]-2-yl)sulfamoyl)benzoic acid]
CS(=O)(=O)c1ccc(-c2cccc(F)c2)c(NS(=O)(=O)c2cc(C(=O)O)ccc2C2CC2)c1 [Example 93, 4-cyclopropyl-3-(N-(3′-fluoro-4-(methylsulfonyl)-[1,1′-biphenyl]-2-yl)sulfamoyl)benzoic acid]
N#Cc1ccc(-c2cccc(F)c2)c(NS(=O)(=O)c2cc(C(=O)O)ccc2C2CC2)c1 [Example 94, 3-(N-(4-cyano-3′-fluoro-[1,1-biphenyl]-2-yl)sulfamoyl)-4-cyclopropylbenzoic acid]
Cc1ccc(-c2ccc(C#N)cc2NS(=O)(=O)c2cc(C(=O)O)ccc2C2CC2)s1 [Example 95, 3-(N-(5-cyano-2-(5-methylthiophen-2-yl)phenyl)sulfamoyl)-4-cyclopropylbenzoic acid]
N#Cc1ccc(-c2ccccc2)c(NS(=O)(=O)c2cc(C(=O)O)ccc2C2CC2)c1 [Example 96, 3-(N-(4-cyano-[1,1′-biphenyl]-2-yl)sulfamoyl)-4-cyclopropylbenzoic acid]
